Experimental data: patent US7323303B2, “Modified β-lactamases and uses thereof” (priority 2003, dated 2008)

How the values were obtained:
[1] = molecular target: T1, B. cereus β-lactamase II (Bacillus cereus, UniProt P04190); test: Drug screening: E166Cf fluorescence in presence of bacterial β-lactamase culture; format: biochemical; set-up: key: −: Decline in fluorescence signal (presence of beta-lactam hydrolysis); +: No decline in fluorescence signal (absence of beta-lactam hydrolysis); conditions: antibiotic 1.0×10^−4 M, E166Cf 1.2×10^−7 M
T1 construct: made in house; host or cells: B. subtilis 1A304 (φ105MU331); whole culture used, not purified
Description: (§1) The use of the E166Cf enzyme in screening bacterial β-lactamases against various β-lactam antibiotics was investigated. The principle of our method is that when both E166Cf and bacterial β-lactamase are incubated with ‘β-lactamase-unstable’ antibiotics, the fluorescence of the E166Cf enzyme will be suppressed because of the greater catalytic efficiency of the bacterial enzyme. In contrast, when bacterial β-lactamases are screened against ‘β-lactamase-resistant’ antibiotics, the fluorescence of the E166Cf enzyme will be enhanced because of the poor hydrolytic activity of the bacterial enzyme. Thus, any β-lactam antibiotic that causes the labeled enzyme to increase its fluorescence intensity in the presence of bacterial β-lactamases can be used in clinical treatments.
(§2) The β-lactamase II, penPC β-lactamase and penP β-lactamase were expressed in B. subtilis 1A304 (φ105MU331). These enzymes were prepared according to the procedures described previously (Reference 7: Thomwell, S. J. East, A. K., Errington, J. An efficient expression and secretion system based on Bacillus subtilis phage phi 105 and its uses for the production for B. cereus β-lactamase I. (1993) Gene 133, 47-53) with slight modifications. A bacterial strain was streaked on an agar plate containing 5 μg/ml chloramphenicol, and the plate was incubated at 37° C. for 24 h. A single bacterial colony from the agar plate was inoculated into 100 ml of sterilized BHY medium (37 g/l brain heart infusion and 5 g/l yeast extract) which was then incubated at 37° C. with shaking at 300 rpm overnight. About 7 ml of overnight inoculum was added to a baffled conical flask containing 100 ml of sterilized BHY medium. The inoculated medium was incubated at 37° C. with shaking at 300 rpm. When the optical density of the bacterial culture at 600 nm reached 3.5 to 4.0, the bacterial culture was heated in a water bath at 51° C. for 5 min. Afterwards, the bacterial culture was incubated at 37° C. with shaking at 300 rpm for a further 6 h. The bacterial culture was then harvested and stored at −20° C.
(§3) Fluorescence measurements of the E166Cf enzyme in the presence of bacterial cultures and β-lactam antibiotics were performed on a FLUOstar microplate reader (BMG Labtechnologies) equipped with two sample injectors. Excitation and emission filters of 485 and 520 nm respectively were used. For B. cereus penPC β-lactamase, B. licheniformis penP β-lactamase and B. cereus β-lactamase II, the labeled enzymes were mixed with the bacterial cultures, and the mixtures were made up to 300 μl with 50 mM phosphate buffer (pH 7.0) in a 96-well microtiter plate (Corning Costar). For the purpose of comparison, B. subtilis cultures, which produced no β-lactamase, were set up as negative controls. For E. coli. TEM-1 β-lactamase, the labeled enzymes were mixed with the bacterial cultures without dilution. E. coli. cultures, which produced no β-lactamase, were set up as negative controls for comparison. The antibiotics were then added to the bacterial samples by the injectors.
(§4) The results from the time-resolved fluorescence measurements of the labeled enzyme (1.2×10^−7 M) in the presence of various bacterial cultures and β-lactam antibiotics (1.0×10^−4 M) are shown in FIGS. 23 to 26.

[2] = molecular target: T2, B. cereus penPC β-lactamase (Bacillus cereus, UniProt P00809); test: as above; format: biochemical; set-up: key: −: Decline in fluorescence signal (presence of beta-lactam hydrolysis); +: No decline in fluorescence signal (absence of beta-lactam hydrolysis); conditions: antibiotic 1.0×10^−4 M, E166Cf 1.2×10^−7 M
T2 construct: made in house; host or cells: B. subtilis 1A304 (φ105MU331); whole culture used, not purified
Description: as §1, §2, §3, §4

[3] = molecular target: T3, B. licheniformis penP β-lactamase (Bacillus licheniformis, UniProt P00808); test: as above; format: biochemical; set-up: key: −: Decline in fluorescence signal (presence of beta-lactam hydrolysis); +: No decline in fluorescence signal (absence of beta-lactam hydrolysis); conditions: antibiotic 1.0×10^−4 M, E166Cf 1.2×10^−7 M
T3 construct: made in house; host or cells: B. subtilis 1A304 (φ105MU331); whole culture used, not purified
Description: as §1, §2, §3, §4

[4] = molecular target: T4, E. coli TEM-1 β-lactamase (Escherichia coli, UniProt P62593); test: as above; format: biochemical; set-up: key: −: Decline in fluorescence signal (presence of beta-lactam hydrolysis); +: No decline in fluorescence signal (absence of beta-lactam hydrolysis); conditions: E. coli TEM-1 culture, undiluted; antibiotic 1.0×10^−4 M; E166Cf 1.2×10^−7 M
T4 construct: made in house; host or cells: E. coli BL21(DE3); whole overnight culture used undiluted, not purified
Description: as §1
The TEM-1 β-lactamase was expressed in E. coli. BL21(DE3). Preparation of the TEM-1 β-lactamase was performed as follows. A bacterial strain was streaked on an agar plate containing 100 μg/ml ampicillin, and the plate was incubated at 37° C. for 24 h. A single bacterial colony from the plate was inoculated into 100 ml of sterilized LB broth (28 g/l) which was then incubated at 37° C. with shaking at 280 rpm overnight. After overnight incubation, the bacterial culture was harvested and stored at −20° C.
as §3, §4

[5] = molecular target: T5, E166Cf enzyme (Bacillus cereus, UniProt P00809, E185C); test: Detection of β-lactam antibiotics in milk by E166Cf fluorescence; conditions: untreated milk; E166Cf 1.2×10^−7 M
T5 construct: made in house; host or cells: B. subtilis 1A304 (φ105MU331); then labelled chemically
T5 sequence (P00809 28-306 E185C): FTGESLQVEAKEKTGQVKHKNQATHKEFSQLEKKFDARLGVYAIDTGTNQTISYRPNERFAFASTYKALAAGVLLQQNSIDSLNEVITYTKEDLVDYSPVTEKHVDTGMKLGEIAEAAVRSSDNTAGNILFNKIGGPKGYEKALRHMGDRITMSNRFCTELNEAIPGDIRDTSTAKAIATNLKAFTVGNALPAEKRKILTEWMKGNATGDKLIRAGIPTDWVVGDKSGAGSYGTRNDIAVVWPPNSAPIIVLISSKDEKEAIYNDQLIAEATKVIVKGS
Description: Fluorescence measurements of the E166Cf enzyme in milk in the presence of penicillin G and ampicillin were performed on a FLUOstar microplate reader (BMG Labtechnologies) equipped with two sample injectors. Excitation and emission filters of 485 and 520 nm respectively were used. Milk (pasteurized and homogenized, Nestle Dairy Farm) was purchased at a local supermarket. The labeled enzyme was mixed with the milk sample in a 96-well microtiter plate (Corning Costar). The antibiotics were then added to the mixtures by the injectors.
FIGS. 21 and 22 show the results from the time-resolved fluorescence measurements of the labeled enzyme (1.2×10^−7 M) in untreated milk in the presence of various concentrations of penicillin G and ampicillin respectively.

[6] = molecular target: T6, E166Cf (fluorescein-labeled E166C mutant of β-lactamase I) (Bacillus cereus, UniProt P00809, E185C); test: Spectrophotometric substrate hydrolysis, steady-state kinetics; format: biochemical; conditions: E166Cf; 50 mM potassium phosphate buffer pH 7.0, 20° C.
T6 construct: made in house; host or cells: B. subtilis 1A304 (φ105MU331); then labelled chemically
T6 sequence (P00809 28-306 E185C): T5 sequence (P00809 28-306 E185C)
Description: (§5) The hydrolytic activities of the wild-type β-lactamase I, E166C and E166Cf mutants towards penicillin G, penicillin V and ampicillin (Sigma) were monitored by the spectrophotometric method. The spectrophotometric measurements were performed on a Perkin Elmer Lambda Bio20 UV/Vis spectrometer. Substrate hydrolysis was monitored at a fixed wavelength: 235 nm for ampicillin, 232 nm for penicillin G and penicillin V. The initial rate of substrate hydrolysis occurring within 5 min was determined in duplicate at each of 6 different substrate concentrations in 50 mM potassium phosphate buffer (pH 7.0) at 20° C. The initial rates determined were then treated as described in Reference 5 to calculate the Michaelis constants (Km) and turnover numbers (kcat) using non-linear regression analysis (equation 1):
(§6) [formula] where v is the initial rate of substrate hydrolysis, Vmax the maximum rate of reaction, [S] the initial substrate concentration, Km the Michaelis constant and kcat=Vmax/[Enzyme].
(§7) The measured steady-state kinetic parameters for hydrolysis of penicillin G, penicillin V and ampicillin by the wild-type β-lactamase I, E166C and E166Cf mutants are summarized in Table 1.
At high substrate concentration (1.0×10^−5 and 1.0×10^−4 M), the penicillin substrates rapidly occupy the active sites to form the ES complexes, thus switching on the fluorescence of the fluorescein labels instantaneously. […] This can be verified by the fact that the ‘plateau time’ (8 and 22 min for 1.0×10^−5 and 1.0×10^−4 M penicillin G respectively) is consistent with the ‘substrate hydrolysis time’ determined by spectrophotometric assays (7 and 20 min for 1.0×10^−5 and 1.0×10^−4 M penicillin G respectively). When most of the penicillin substrates have been hydrolyzed to carboxylic acids, the fluorescence signal of the labeled enzyme will decline subsequently.

[7] = molecular target: T7, E166C mutant of β-lactamase I (Bacillus cereus, UniProt P00809, E185C); test: as above; format: biochemical; conditions: 50 mM potassium phosphate buffer pH 7.0, 20° C.
T7 construct: made in house; host or cells: B. subtilis 1A304 (φ105MU331)
T7 sequence (P00809 28-306 E185C): T5 sequence (P00809 28-306 E185C)
Description: as §5, §6, §7

[8] = molecular target: T5, E166Cf enzyme; test: Time-resolved fluorescence of E166Cf enzyme with β-lactamase inhibitors; format: biochemical; conditions: 1.0×10^−4 M inhibitor; E166Cf 1.2×10^−7 M, 50 mM phosphate buffer pH 7.0
Description: Time-resolved fluorescence measurements of the E166Cf enzyme in the presence of sulbactam and clavulanate were performed on a Perkin Elmer LS50B spectrofluorometer. The excitation and emission wavelengths were set at 494 and 515 nm respectively. Both excitation and emission slit widths were set at 5 nm. All fluorescence measurements were performed at room temperature.
The fluorescence signals of the labeled enzyme (1.2×10^−7 M) obtained with sulbactam (1.0×10^−4 M) and clavulanate (1.0×10^−3 M) in 50 mM phosphate buffer (pH 7.0) are entirely different (FIGS. 18 and 19).

T3 sequence (P00808 27-307): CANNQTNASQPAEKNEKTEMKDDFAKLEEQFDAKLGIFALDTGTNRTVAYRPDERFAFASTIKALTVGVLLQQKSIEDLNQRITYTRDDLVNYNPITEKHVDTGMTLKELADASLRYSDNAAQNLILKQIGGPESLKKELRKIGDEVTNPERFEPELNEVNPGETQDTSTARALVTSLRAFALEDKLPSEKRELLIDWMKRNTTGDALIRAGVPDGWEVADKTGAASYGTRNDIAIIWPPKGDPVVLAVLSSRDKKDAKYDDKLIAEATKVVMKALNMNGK
T2 sequence (P00809 28-306): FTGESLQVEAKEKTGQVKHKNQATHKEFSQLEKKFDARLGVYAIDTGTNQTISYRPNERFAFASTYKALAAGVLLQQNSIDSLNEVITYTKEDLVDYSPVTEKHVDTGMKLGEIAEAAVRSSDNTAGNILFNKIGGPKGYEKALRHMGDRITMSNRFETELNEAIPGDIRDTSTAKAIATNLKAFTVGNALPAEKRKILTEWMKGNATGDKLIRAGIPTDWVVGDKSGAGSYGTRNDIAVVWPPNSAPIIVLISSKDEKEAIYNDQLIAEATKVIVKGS
T1 sequence (P04190 31-257): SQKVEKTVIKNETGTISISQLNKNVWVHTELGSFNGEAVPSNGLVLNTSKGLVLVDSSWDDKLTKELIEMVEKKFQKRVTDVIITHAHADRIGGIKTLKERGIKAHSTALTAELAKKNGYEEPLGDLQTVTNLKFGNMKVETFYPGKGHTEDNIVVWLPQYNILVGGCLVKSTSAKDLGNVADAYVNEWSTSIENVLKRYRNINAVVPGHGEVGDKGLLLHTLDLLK
T4 sequence (P62593 24-286 limits assumed): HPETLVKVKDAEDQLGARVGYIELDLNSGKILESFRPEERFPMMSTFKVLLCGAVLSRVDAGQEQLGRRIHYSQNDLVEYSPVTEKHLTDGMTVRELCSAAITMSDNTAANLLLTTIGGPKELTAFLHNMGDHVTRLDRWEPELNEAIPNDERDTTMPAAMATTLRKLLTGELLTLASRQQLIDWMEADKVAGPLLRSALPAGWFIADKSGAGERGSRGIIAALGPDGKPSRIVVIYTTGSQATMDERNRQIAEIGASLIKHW

Structure (SMILES) | fluorescence signal of E166Cf (beta-lactam hydrolysis) [1] | fluorescence signal of E166Cf (beta-lactam hydrolysis) [2] | fluorescence signal of E166Cf (beta-lactam hydrolysis) [3] | fluorescence signal of E166Cf (beta-lactam hydrolysis) [4] | lowest concentration detected by the labeled enzyme [5] | Km [6] [µM] | kcat [6] [s⁻¹] | Km [7] [µM] | kcat [7] [s⁻¹] | time course of E166Cf fluorescence intensity at 515 nm [8]
CC1(C)S[C@@H]2[C@H](NC(=O)[C@H](N)c3ccccc3)C(=O)N2[C@H]1C(=O)O [Ampicillin, ampicillin] | − | − | − | − | 10^−6 M | 262 ± 31 | 6.2 ± 0.2 | 306 ± 30 | 4.1 ± 0.1 | 
CC1(C)[C@H](C(=O)O)N2C(=O)C[C@H]2S1(=O)=O [sulbactam] |  |  |  |  |  |  |  |  |  | increases rapidly at the initial stage and then declines slowly
